Laboratory results as given in ChEMBL document CHEMBL1201862, “PubChem BioAssay data set” (2004).
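Cells were grown in 96-well plates and exposed to each compound for 48 hours at five concentrations; endpoints were interpolated linearly between bracketing concentrations, or set to the highest concentration if not reached. GI50 = concentration required for 50% inhibition of growth.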 The source made the active and inactive calls. Cut-off read from the data, not from the text of the source: active = GI50 up to about 1.1 µM and inactive = higher.

Assays:
Experiment in all cases: NCI-60 cell line screen, 48 h
UACC-62 = tested on: UACC-62
Hs-578T = tested on: Hs-578T
HL-60 = tested on: HL-60
T47D = tested on: T47D
CAKI-1 = tested on: CAKI-1
SN12C = tested on: SN12C
SNB-19 = tested on: SNB-19
K562 = tested on: K562
HT-29 = tested on: HT-29
EKVX = tested on: EKVX
HOP-92 = tested on: HOP-92
MDA-MB-435 = tested on: MDA-MB-435
SK-MEL-5 = tested on: SK-MEL-5
Malme-3M = tested on: Malme-3M
A549 = tested on: A549
PC-3 = tested on: PC-3
SK-MEL-2 = tested on: SK-MEL-2
SF-539 = tested on: SF-539
RXF 393 = tested on: RXF 393
NCI/ADR-RES = tested on: NCI/ADR-RES

Structure (SMILES)	GI50 (UACC-62)	GI50 (Hs-578T)	GI50 (HL-60)	GI50 (T47D)	GI50 (CAKI-1)	GI50 (SN12C)	GI50 (SNB-19)	GI50 (K562)	GI50 (HT-29)	GI50 (EKVX)	GI50 (HOP-92)	GI50 (MDA-MB-435)	GI50 (SK-MEL-5)	GI50 (Malme-3M)	GI50 (A549)	GI50 (PC-3)	GI50 (SK-MEL-2)	GI50 (SF-539)	GI50 (RXF 393)	GI50 (NCI/ADR-RES)
O=C1CCCCC/C1=C\c1ccccc1	63.4 µM (inactive)	> 100 µM (inactive)	18.2 µM (inactive)	> 100 µM (inactive)	> 100 µM (inactive)	> 100 µM (inactive)	> 100 µM (inactive)	> 100 µM (inactive)	> 100 µM (inactive)	> 100 µM (inactive)	> 100 µM (inactive)	76 µM (inactive)	45 µM (inactive)	> 100 µM (inactive)	> 100 µM (inactive)	> 100 µM (inactive)	> 100 µM (inactive)			
COc1ccc(N2C(=O)C3c4[nH]c5ccc(OCc6ccccc6)cc5c4C4CCC(C(C)(C)C)CC4C3C2=O)cc1 (stereo unspecified)	> 100 µM (inactive)	54.2 µM (inactive)	> 100 µM (inactive)	17.5 µM (inactive)	> 100 µM (inactive)	78.5 µM (inactive)	> 100 µM (inactive)	> 100 µM (inactive)	> 100 µM (inactive)	> 100 µM (inactive)		97.7 µM (inactive)	> 100 µM (inactive)	25.7 µM (inactive)	> 100 µM (inactive)	> 100 µM (inactive)	> 100 µM (inactive)	46 µM (inactive)	> 100 µM (inactive)	63.5 µM (inactive)
NS(=O)(=O)c1ccc(NCc2nc3ccccc3[nH]2)cc1	> 100 µM (inactive)	> 100 µM (inactive)		> 100 µM (inactive)	> 100 µM (inactive)	> 100 µM (inactive)	> 100 µM (inactive)		> 100 µM (inactive)	> 100 µM (inactive)	> 100 µM (inactive)	> 100 µM (inactive)	> 100 µM (inactive)	> 100 µM (inactive)	> 100 µM (inactive)	> 100 µM (inactive)	> 100 µM (inactive)	> 100 µM (inactive)	> 100 µM (inactive)	> 100 µM (inactive)
COc1ccc(/C=N/n2c(-c3ccccc3)n[nH]c2=O)cc1	> 100 µM (inactive)	50.1 µM (inactive)		> 100 µM (inactive)	> 100 µM (inactive)	> 100 µM (inactive)	> 100 µM (inactive)	> 100 µM (inactive)	> 100 µM (inactive)	> 100 µM (inactive)		> 100 µM (inactive)		> 100 µM (inactive)	95.1 µM (inactive)	> 100 µM (inactive)	> 100 µM (inactive)	> 100 µM (inactive)		> 100 µM (inactive)
O=C1CSC(c2ccccc2)N1c1ccc(-c2ccc(-n3c(-c4ccccc4)nc4ccccc4c3=O)cc2)cc1 (stereo unspecified)	34.6 µM (inactive)	> 100 µM (inactive)	27.4 µM (inactive)	25 µM (inactive)	> 100 µM (inactive)	> 100 µM (inactive)	82.8 µM (inactive)	33.3 µM (inactive)	46.1 µM (inactive)	55.3 µM (inactive)	> 100 µM (inactive)	49.8 µM (inactive)	25.2 µM (inactive)	35.4 µM (inactive)	41.7 µM (inactive)	37.9 µM (inactive)	25.5 µM (inactive)			43.5 µM (inactive)
CC1(C)CC(=O)c2c(nc3ccc4ccccc4c3c2-c2ccc(NC(=O)CCC(=O)Nc3ccc(-c4c5c(nc6ccc7ccccc7c46)CC(C)(C)CC5=O)cc3)cc2)C1		> 100 µM (inactive)	> 100 µM (inactive)	> 100 µM (inactive)	> 100 µM (inactive)	> 100 µM (inactive)	> 100 µM (inactive)	> 100 µM (inactive)	> 100 µM (inactive)	> 100 µM (inactive)		> 100 µM (inactive)	> 100 µM (inactive)		> 100 µM (inactive)	> 100 µM (inactive)	> 100 µM (inactive)	> 100 µM (inactive)	> 100 µM (inactive)	> 100 µM (inactive)
C[C@H]1S[C@H](c2c(F)cccc2F)n2c1nc1ccccc12	63.1 µM (inactive)	88.7 µM (inactive)		29.2 µM (inactive)	74 µM (inactive)	74.1 µM (inactive)	> 100 µM (inactive)	35.3 µM (inactive)	47.3 µM (inactive)	66.2 µM (inactive)		34 µM (inactive)	20.2 µM (inactive)	41.5 µM (inactive)	47.1 µM (inactive)	33.7 µM (inactive)	15.1 µM (inactive)		28.6 µM (inactive)	44.2 µM (inactive)
COc1ccc(C[C@H]2NC(=O)/C=C/C[C@@H]([C@H](C)[C@H]3O[C@@H]3c3ccccc3)OC(=O)[C@H](CC(C)C)OC(=O)[C@H](C)CNC2=O)cc1	6.71e-06 µM (active)	1.01e-05 µM (active)	1.55e-05 µM (active)	> 0.0001 µM (active)	1.25e-05 µM (active)	3.94e-05 µM (active)	2.47e-05 µM (active)	9.27e-06 µM (active)	8.18e-06 µM (active)	3.77e-05 µM (active)		3.37e-06 µM (active)	7.53e-06 µM (active)	2.19e-05 µM (active)	3.16e-05 µM (active)	2.09e-05 µM (active)	> 4.42e-05 µM (active)	1.94e-05 µM (active)	9.27e-06 µM (active)	> 0.0001 µM (active)
c1ccc([P+](c2ccccc2)(c2ccccc2)C2c3ccccc3-c3ccccc32)cc1	1.26 µM (inactive)	2.21 µM (inactive)	1.16 µM (inactive)	2.71 µM (inactive)	3.46 µM (inactive)	2.36 µM (inactive)	2.79 µM (inactive)	1.9 µM (inactive)	0.74 µM (active)			0.655 µM (active)	1.77 µM (inactive)	2.35 µM (inactive)	2.88 µM (inactive)	1.47 µM (inactive)	1.71 µM (inactive)	2.75 µM (inactive)	1.86 µM (inactive)	15.3 µM (inactive)
COc1ccc(N2C(=O)C3CC4=CC(=O)C[C@H]4[C@H]32)cc1 (stereo partly specified)	45.2 µM (inactive)	> 100 µM (inactive)		> 100 µM (inactive)	23.4 µM (inactive)	29.4 µM (inactive)	> 100 µM (inactive)	64.9 µM (inactive)				22.9 µM (inactive)			> 100 µM (inactive)	28.4 µM (inactive)	> 100 µM (inactive)		82 µM (inactive)	44.1 µM (inactive)
C=CCCCC1(C)CCNC1=S (stereo unspecified)	> 100 µM (inactive)	> 100 µM (inactive)		> 100 µM (inactive)	> 100 µM (inactive)	> 100 µM (inactive)	> 100 µM (inactive)	> 100 µM (inactive)	> 100 µM (inactive)	> 100 µM (inactive)	> 100 µM (inactive)	> 100 µM (inactive)	> 100 µM (inactive)		> 100 µM (inactive)	> 100 µM (inactive)	> 100 µM (inactive)	> 100 µM (inactive)	> 100 µM (inactive)	
O=C1N2CCN=C2c2ccccc2C1(O)c1ccccc1 (stereo unspecified)	> 100 µM (inactive)	> 100 µM (inactive)	> 100 µM (inactive)	> 100 µM (inactive)	> 100 µM (inactive)	> 100 µM (inactive)	> 100 µM (inactive)	> 100 µM (inactive)	> 100 µM (inactive)	> 100 µM (inactive)	> 100 µM (inactive)	> 100 µM (inactive)	> 100 µM (inactive)		> 100 µM (inactive)	> 100 µM (inactive)		> 100 µM (inactive)		> 100 µM (inactive)
O=c1c2c3c(sc2nc2n1N=CN(c1ccc(Cl)cc1)C2)CCCC3	56.8 µM (inactive)	3.93 µM (inactive)		2.21 µM (inactive)	23.8 µM (inactive)	> 100 µM (inactive)	> 100 µM (inactive)	19.3 µM (inactive)	19.5 µM (inactive)	93.8 µM (inactive)	8.47 µM (inactive)	> 100 µM (inactive)	44.8 µM (inactive)	16.2 µM (inactive)	38.4 µM (inactive)	15.1 µM (inactive)	43.2 µM (inactive)		12.3 µM (inactive)	74.8 µM (inactive)
Fc1ccc(C(OCCN2CCC3CCC(C2)N3C/C=C/c2cccnc2)c2ccc(F)cc2)cc1 (stereo unspecified)	12.3 µM (inactive)	12 µM (inactive)		12.6 µM (inactive)	12 µM (inactive)	13.1 µM (inactive)	15.2 µM (inactive)		3.44 µM (inactive)	12.2 µM (inactive)	13.4 µM (inactive)	11.1 µM (inactive)	4.01 µM (inactive)	4.08 µM (inactive)	11.8 µM (inactive)	9.93 µM (inactive)	13.3 µM (inactive)	11.5 µM (inactive)	5.28 µM (inactive)	11.3 µM (inactive)
N#Cc1c(NC(=S)Nc2ccc(Cl)cc2)sc2c1CCN(N1CCc3c(sc(NC(=S)Nc4ccc(Cl)cc4)c3C#N)C1)C2	10.6 µM (inactive)	44.8 µM (inactive)	30.2 µM (inactive)	21.6 µM (inactive)	63.8 µM (inactive)	39.3 µM (inactive)	64 µM (inactive)	22.4 µM (inactive)	13.6 µM (inactive)	18.2 µM (inactive)		27.1 µM (inactive)	10.5 µM (inactive)	55.2 µM (inactive)	28.5 µM (inactive)	37.4 µM (inactive)	20.3 µM (inactive)	16.8 µM (inactive)	18.3 µM (inactive)	76.6 µM (inactive)
